Series [1] deals with T1, CYP2A6 (Homo sapiens, UniProt P11509).
T1 sequence (P11509 1-494): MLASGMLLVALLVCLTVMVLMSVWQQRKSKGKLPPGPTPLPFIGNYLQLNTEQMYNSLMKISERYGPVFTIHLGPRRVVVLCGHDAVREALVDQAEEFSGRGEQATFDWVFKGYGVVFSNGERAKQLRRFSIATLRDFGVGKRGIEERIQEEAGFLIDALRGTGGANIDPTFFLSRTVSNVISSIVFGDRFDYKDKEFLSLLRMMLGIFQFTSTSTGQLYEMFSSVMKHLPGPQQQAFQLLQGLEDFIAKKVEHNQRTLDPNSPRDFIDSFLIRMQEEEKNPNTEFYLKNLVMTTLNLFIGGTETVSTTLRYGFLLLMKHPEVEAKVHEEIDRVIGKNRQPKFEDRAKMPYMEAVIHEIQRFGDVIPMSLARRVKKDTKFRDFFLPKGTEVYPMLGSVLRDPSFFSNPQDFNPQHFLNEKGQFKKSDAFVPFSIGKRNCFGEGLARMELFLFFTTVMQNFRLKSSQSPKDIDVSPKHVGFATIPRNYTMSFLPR
The series is described as follows: CYP cocktail inhibition assay in pooled HLMs, CYP2A6. The note with it: substrate cocktail. The procedure:
The drug–drug interaction potential was evaluated using a CYP cocktail assay that involved microsomal incubation and NADPH, as described elsewhere ([Lee et al., 2012]). […] The first reactions were initiated by NADPH addition, and each mixture was incubated in a shaking water bath at 37°C for 30 min. The final incubation was performed for 10 min with a total volume of 200 µL by adding substrates (tolbutamide (set B) as a CYP2C9 selective substrate, midazolam (set A) and testosterone (set B) as CYP3A4 selective substrates) and NADPH. The reaction was stopped and quenched by adding 200 µL of ice-cold acetonitrile containing 50 nM CBZ as internal standard, then centrifuged at 3,000 x g for 20 min. The supernatants were injected in LC-QTOF system. IC50 shift values were calculated as the ratio of the IC50 value obtained after pre-incubation without NADPH divided by the IC50 value obtained after 30 min incubation with NADPH.
The LC-QTOF system consisted of an Exion AD LC device (AB Sciex, Framingham, MA, United States) and a TripleTOF 6,600 + system (AB Sciex) equipped with an IonDrive Turbo V source operated in positive TOF information-dependent acquisition (IDA) MS2 scan mode. The TOF scan dwell time was 50 ms, and the 20 × IDA MS2 scan time was acquired with a 30-ms dwell time. […]

Series [2] deals with CYP2D6 (Homo sapiens, UniProt P10635). The format is in vitro ADME. The note with it: 1 µM, 50 pmol/mL recombinant CYP2D6, NADPH, 60 min, vs control. Details: purchased Cypex (Dundee, UK); host or cells: bactosomes (bacterial membranes). The procedure:
Reactions were conducted in triplicate using 0.1 M PPB (pH 7.4) in eight-well tube strips in an 8 × 12 rack. […] The mixture was pre-incubated at 37°C with shaking at approximately 100 rpm for 5 min. Reactions were initiated by the addition of the NADPH-regenerating system and quenched with 200 µL ice-cold acetonitrile containing 50 nM CBZ. The samples were centrifuged at 1,000 × g and 4°C for 20 min, and the supernatants were subjected to LC-QTOF HRMS. […] The reaction was incubated, initiated, terminated, centrifuged then analyzed using the same method described above.
Reaction phenotyping is the identification of isoforms involved in drug metabolism and is important for the decipherment of drug biotransformation pathways and understanding of possible drug-drug interactions. M6, M7, and M8 were also detected in recombinant CYP incubations.

Series [3] is described as follows: Metabolic stability and metabolite formation in pooled human liver microsomes with NADPH and/or UDPGA. The format is in vitro ADME. The note with it: for Concentration remaining, % of the initial concentration: 1 µM, HLMs; for Hepatic clearance CLh / CLint scaled at 1 µM: in vitro-in vivo extrapolation, well-stirred model; for half-life at 1 µM / microsomal CLint at 1 µM / CLint scaled at 1 µM: human, microsomes; for half-life at 1 µM: pH 7.4, 1 µM compound, read-out: Half-life; for microsomal CLint at 1 µM: read-out: Intrinsic clearance (in vitro) Clint; for CLint scaled at 1 µM: read-out: Intrinsic clearance (in vivo) CLint. The procedure: Microsomal incubation was conducted in triplicate using 0.1 M potassium phosphate buffer (PPB, pH 7.4) in eight-well tube strips in an 8 × 12 rack (1.2 mL; VWR, Emeryville, CA, United States). […] The mixture was pre-incubated at 37°C with shaking at approximately 100 rpm for 5 min. UGT glucuronidation was performed with HLMs (1 mg/mL) and alamethicin (25 μg/mg microsomal protein) in a 100-mM PPB (pH 7.4) solution on ice for 15 min. […] CYP, UGT, and combined reactions were initiated by addition of the NADPH regenerating system, UDPGA (1 mM), and both, respectively. […] The incubation mixtures were then centrifuged at 2,000 × g and 4°C for 20 min, and the supernatants were analyzed by LC-QTOF HRMS.
The incubation mixtures were pre-incubated at 37°C in a shaking water bath at approximately 100 rpm for 5 min. Reactions were initiated by the addition of an NADPH-regenerating system. The reaction was terminated, centrifuged then analyzed using the same method described above.
In the microsomal stability analysis, degradation half-life (t½) values were calculated using the following equation: t½=0.693/k where k is the first-order degradation rate constant, estimated by one-phase exponential-decay non-linear regression of the degradation time-course data using Graph Pad Prism 8.0 (Graph Pad Software Inc., San Diego, CA, United States). In vitro metabolic stability parameters, microsomal intrinsic clearance (CLint,mic), apparent intrinsic clearance (CL′int), and hepatic clearance (CLh), were calculated according to the well-stirred model approach ([Pang and Rowland, 1977]; [Baranczewski et al., 2006]). The apparent kinetic parameters of GRL0617 metabolism were determined by fitting a one-enzyme Michaelis-Menten equation. […] All data are presented as mean ± SD. Data were compared between groups using the unpaired Student’s t-test. The significance level was set at p < 0.05, unless indicated otherwise.

Data on one compound can be found in paper PMC9975351 (Frontiers in Pharmacology, 2023).

Where two headings read alike, the source gives them in different places.

Sequence of CYP2D6 (P10635 whole entry): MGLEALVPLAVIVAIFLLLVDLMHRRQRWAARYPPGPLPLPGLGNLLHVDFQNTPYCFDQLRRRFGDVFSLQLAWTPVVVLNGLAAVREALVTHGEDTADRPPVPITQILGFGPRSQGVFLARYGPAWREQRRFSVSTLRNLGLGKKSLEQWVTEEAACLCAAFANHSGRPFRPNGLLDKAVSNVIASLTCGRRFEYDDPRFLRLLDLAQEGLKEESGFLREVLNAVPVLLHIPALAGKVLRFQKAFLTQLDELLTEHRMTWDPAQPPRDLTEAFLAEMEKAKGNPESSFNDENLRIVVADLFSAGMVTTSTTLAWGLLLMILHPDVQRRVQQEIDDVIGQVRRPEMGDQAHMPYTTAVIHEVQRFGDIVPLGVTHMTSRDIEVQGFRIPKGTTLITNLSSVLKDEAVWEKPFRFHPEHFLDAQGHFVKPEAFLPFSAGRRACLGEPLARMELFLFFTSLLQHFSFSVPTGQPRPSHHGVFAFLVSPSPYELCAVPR

Regarding `Cc1ccc(N)cc1C(=O)N[C@H](C)c1cccc2ccccc12` [GRL0617, 5-amino-2-methyl-N-[(1R)-1-(1-naphthalenyl)ethyl]benzamide], the “Concentrations at which CYP2A6 was inhibited” value in series [1] is at least 50 µM. Moreover, in series [2], the GRL0617 level remaining is 71.46% ± 3.1%. The Half-life in series [3] (1 µM compound, 1 mg/mL pooled HLMs with NADPH (phase I)) is given as 26.4 min. In addition, the figures for the “Concentration remaining, % of the initial concentration” value in series [3] (60 min incubation with NADPH), in series [3] (60 min incubation with NADPH + UDPGA) and in series [3] (60 min incubation with UDPGA) were 44.5% ± 5.3%, 47.2% ± 7.5% and 93.4% ± 6.1%, respectively. Also, the “Direct UGT glucuronidation” value in series [3] (HLM with UDPGA only) was “No direct UGT glucuronidation was detected”. Moreover, the figures for the “Hepatic clearance CLh” value in series [3] (NADPH + UDPGA) and in series [3] (NADPH) were 11.1 mL/min/kg and 11.7 mL/min/kg, respectively. Besides, the half-life at 1 µM in series [3] (1 mg/mL pooled HLMs with NADPH (phase I)) is below 30 min; in series [3] (1 mg/mL pooled HLMs with NADPH + UDPGA (phase I + II)), 29.5 min. The microsomal CLint at 1 µM in series [3] (pH 7.4, HLMs with NADPH + UDPGA) was found to be 23.5 µL/min/mg; in series [3] (pH 7.4, HLMs with NADPH), 26.3 µL/min/mg. The CLint scaled at 1 µM in series [3] (pH 7.4, NADPH + UDPGA) is 24.1 mL/min/kg; in series [3] (pH 7.4, NADPH) it was 27 mL/min/kg.
